# Reference: patent US10500226B2, “Alginate compositions and uses thereof” (Hadasit Medical Research Services and Development Ltd., priority 2012, dated 2019)
# System: serum ALT (alanine aminotransferase)
# Test: Concanavalin A mouse model: serum ALT
# Type: in vivo, C57BL/6 (B6) mice
# Source text: Injection of the T-cell mitogenic plant lectin concanavalin A (Con A) to non-sensitized mice results in hepatic apoptosis that precedes necrosis. The concanvalin A (Con A) model is a widely utilized mouse model, which mimics many aspects of human autoimmune hepatitis. It induces a massive liver necrosis in mice, simultaneously with lymphocyte infiltration into the liver, high levels of apoptotic hepatocytes and elevated serum alanine aminotransferase (ALT) and aspartate aminotransferase (AST). The liver injury is mediated by natural killer T (NKT) cells. Several apoptosis-related effector molecules, IFN-γ and TNF-α take part in the NKT cell-mediated liver injury. The immune-mediated liver injury which develops in the Con A model is very rapid, taking less than 48 hours. The peak for liver enzymes and pro-inflammtory cytokines is after less than 15 hours, making the model particularly useful for screening anti-inflammatory agents.
# Tested solutions were administered intraperitoneally by injection of a volume of 200 μl per mouse or by administration per os of 250 μl per mouse, 1 hour before concanavalin A (Con A) administration. Saline (0.15 M NaCl) served as a negative control test solution.
# Con A was dissolved at a concentration of 16 mg/kg in 200 μl of 50 mM Tris (pH 7), with 150 mM NaCl, and 4 mM CaCl2, and injected (at a dose of 0.4 mg/mouse) intravenously into the tail vein of mice. Sera from individual mice were obtained 6, 24 and 48 hours (14 hours in some experiments) after Con A injection. All mice were sacrificed after 48 hours (14 hours in some experiments).
# Serum albumin levels after 48 hours were measured by an automatic analyzer.
# The solutions were administered intraperitoneally to adult male C57BL mice at a dose of 200 μl per mouse. One hour later, the mice were challenged with an intravenous injection of concanavalin A (Con A), as described hereinabove. […] Each treatment group contained 4-5 mice. Serum levels of ALT, albumin, and the pro-inflammatory cytokines IL-6 and interferon-γ (IFNγ) were determined as described hereinabove.
smiles,measurement,setting,value
C[C@@H]1C[C@H]2[C@@H]3CCC4=CC(=O)C=C[C@]4(C)[C@@]3(F)[C@@H](O)C[C@]2(C)[C@@]1(O)C(=O)CO [Dexamethasone],serum ALT levels,"2% solutions i.p., 14 hours after Con A administration",203±14 units/liter
same,Serum levels of ALT,"Table 3, 200 μl i.p. 1 hour before Con A (dexamethasone per os), 6 hours after Con A",146 ± 50 units/liter
same,Serum levels of ALT,"Table 3, 200 μl i.p. 1 hour before Con A (dexamethasone per os), 24 hours after Con A",162 ± 50 units/liter
same,Serum levels of ALT,"Table 3, 200 μl i.p. 1 hour before Con A (dexamethasone per os), 48 hours after Con A",69 ± 19 units/liter
same,Serum levels of ALT,"Table 4 (hyaluronan comparison), i.p. before Con A, 6 hours after Con A",83 ± 21 units/liter
same,Serum levels of ALT,"Table 4 (hyaluronan comparison), i.p. before Con A, 24 hours after Con A",68 ± 4 units/liter
same,Serum levels of ALT,"Table 4 (hyaluronan comparison), i.p. before Con A, 48 hours after Con A",76 ± 23 units/liter
same,Serum levels of ALT,"Table 5 (biotinylated alginate, 2%), before Con A, 6 hours after Con A",74 ± 5 units/liter
same,Serum levels of ALT,"Table 5 (biotinylated alginate, 2%), before Con A, 24 hours after Con A",62 ± 14 units/liter
same,Serum levels of ALT,"Table 5 (biotinylated alginate, 2%), before Con A, 48 hours after Con A",65 ± 16 units/liter
same,Serum levels of ALT,"Table 6 (γ-irradiated alginate comparison), 6 hours after Con A",28 ± 10 units/liter
same,Serum levels of ALT,"Table 6 (γ-irradiated alginate comparison), 24 hours after Con A",126 ± 37 units/liter
same,Serum levels of ALT,"Table 6 (γ-irradiated alginate comparison), 48 hours after Con A",68 ± 7 units/liter
same,Serum levels of ALT,"Table 7, per os 250 μl 1 hour before Con A, 6 hours after Con A",46 ± 6 units/liter
same,Serum levels of ALT,"Table 7, per os 250 μl 1 hour before Con A, 24 hours after Con A",65 ± 10 units/liter
same,Serum levels of ALT,"Table 7, per os 250 μl 1 hour before Con A, 48 hours after Con A",139 ± 26 units/liter
same,Serum levels of ALT,"Table 8, per os, repeat with other alginates, 6 hours after Con A",33 ± 12 units/liter
same,Serum levels of ALT,"Table 8, per os, repeat with other alginates, 24 hours after Con A",37 ± 10 units/liter
same,Serum levels of ALT,"Table 8, per os, repeat with other alginates, 48 hours after Con A",31 ± 5 units/liter
